The subject of series [1] is Mus musculus. Description: Antinociceptive activity in ICR mouse model of chronic constriction injury-induced neuropathic pain assessed as inhibition of mechanical allodynia at 10 umol/kg, ip administered 7 days post-surgery and measured after 5 hrs post-dose by Von Frey assay relative to control. In kind it is functional.
The subject of series [2] is Mus musculus. The series can be described thus: Antinociceptive activity in ICR mouse model of chronic constriction injury-induced neuropathic pain assessed as inhibition of mechanical allodynia at 10 umol/kg, ip administered 7 days post-surgery and measured after 3 hrs post-dose by Von Frey assay relative to control. It is filed as functional.
For series [3], the system named is Mus musculus. The series can be described thus: Antinociceptive activity in ICR mouse model of chronic constriction injury-induced neuropathic pain assessed as inhibition of mechanical allodynia at 10 umol/kg, ip administered 7 days post-surgery and measured after 2 hrs post-dose by Von Frey assay relative to control. It is filed as functional.
Series [4] concerns Mus musculus. The series can be described thus: Antinociceptive activity in ICR mouse model of chronic constriction injury-induced neuropathic pain assessed as inhibition of mechanical allodynia at 10 umol/kg, ip administered 7 days post-surgery and measured after 1 hr post-dose by Von Frey assay relative to control. It is filed as functional.
Series [5] deals with Mus musculus. Description: Antinociceptive activity in ICR mouse model of chronic constriction injury-induced neuropathic pain assessed as inhibition of mechanical allodynia at 10 umol/kg, ip administered 7 days post-surgery and measured after 0.5 hrs post-dose by Von Frey assay relative to control. It is filed as functional.
For series [6], the system named is Mus musculus. The series can be described thus: Effect on nociception on contralateral paw in ICR mouse model of chronic constriction injury-induced neuropathic pain assessed as paw withdrawal threshold at 10 umol/kg, ip administered 7 days post-surgery and measured after 30 mins to 3 hrs post-dose by Von Frey assay. It is filed as organism-based. The conditions noted are these: in vivo.

Series [7] deals with Mus musculus. The series can be described thus: Protection ratio of antinociceptive activity in ICR mouse model of chronic constriction injury-induced neuropathic pain assessed as inhibition of mechanical allodynia at 10 umol/kg, ip administered 7 days post-surgery and measured after 3 hrs to 1 hrs post-dose by Von Frey assay. It is filed as functional.
The target in a further series is Cannabinoid receptor 1 (Rattus norvegicus, UniProt P20272). Description: Antagonist activity at rat brain CB1 receptor expressed in HEK-Flp-In cells in presence of [3H]CP55940 measured after overnight incubation by Bright-Glo luminescence assay. It is filed as cell-based.
The next series has as its target Cannabinoid receptor 2 (Rattus norvegicus, UniProt Q9QZN9). Description: Antagonist activity at rat brain CB2 receptor expressed in HEK-Flp-In cells in presence of [3H]CP55940 measured after overnight incubation by Bright-Glo luminescence assay. In kind it is cell-based.
Series [8] deals with Mus musculus. Description: Antinociceptive activity in ip dosed ICR mouse model of chronic constriction injury-induced neuropathic pain assessed as inhibition of mechanical allodynia administered 7 days post-surgery and measured after 1 hr post-dose by Von Frey assay. In kind it is functional.
Series [9] has as its system Mus musculus. Description: Antinociceptive activity in ICR mouse model of chronic constriction injury-induced neuropathic pain assessed as inhibition of mechanical allodynia at 3 umol/kg, ip administered 7 days post-surgery and measured after 5 hrs post-dose by Von Frey assay relative to control. In kind it is functional.
The subject of series [10] is Mus musculus. Description: Antinociceptive activity in ICR mouse model of chronic constriction injury-induced neuropathic pain assessed as inhibition of mechanical allodynia at 1 umol/kg, ip administered 7 days post-surgery and measured after 5 hrs post-dose by Von Frey assay relative to control. It is filed as functional.
Series [11] relates to Mus musculus. The series can be described thus: Antinociceptive activity in ICR mouse model of chronic constriction injury-induced neuropathic pain assessed as inhibition of mechanical allodynia at 3 umol/kg, ip administered 7 days post-surgery and measured after 3 hrs post-dose by Von Frey assay relative to control. In kind it is functional.
The subject of series [12] is Mus musculus. The series can be described thus: Antinociceptive activity in ICR mouse model of chronic constriction injury-induced neuropathic pain assessed as inhibition of mechanical allodynia at 1 umol/kg, ip administered 7 days post-surgery and measured after 3 hrs post-dose by Von Frey assay relative to control. In kind it is functional.
Series [13] concerns Mus musculus. Description: Antinociceptive activity in ICR mouse model of chronic constriction injury-induced neuropathic pain assessed as inhibition of mechanical allodynia at 3 umol/kg, ip administered 7 days post-surgery and measured after 2 hrs post-dose by Von Frey assay relative to control. It is filed as functional.
For series [14], the system named is Mus musculus. Description: Antinociceptive activity in ICR mouse model of chronic constriction injury-induced neuropathic pain assessed as inhibition of mechanical allodynia at 1 umol/kg, ip administered 7 days post-surgery and measured after 2 hrs post-dose by Von Frey assay relative to control. It is filed as functional.
The test system of series [15] is Mus musculus. The series can be described thus: Antinociceptive activity in ICR mouse model of chronic constriction injury-induced neuropathic pain assessed as inhibition of mechanical allodynia at 3 umol/kg, ip administered 7 days post-surgery and measured after 1 hr post-dose by Von Frey assay relative to control. In kind it is functional.
Series [16] concerns Mus musculus. The series can be described thus: Antinociceptive activity in ICR mouse model of chronic constriction injury-induced neuropathic pain assessed as inhibition of mechanical allodynia at 1 umol/kg, ip administered 7 days post-surgery and measured after 1 hr post-dose by Von Frey assay relative to control. It is filed as functional.
In series [17] the test system is Mus musculus. Description: Antinociceptive activity in ICR mouse model of chronic constriction injury-induced neuropathic pain assessed as inhibition of mechanical allodynia at 3 umol/kg, ip administered 7 days post-surgery and measured after 0.5 hrs post-dose by Von Frey assay relative to control. It is filed as functional.
The test system of series [18] is Mus musculus. The series can be described thus: Antinociceptive activity in ICR mouse model of chronic constriction injury-induced neuropathic pain assessed as inhibition of mechanical allodynia at 1 umol/kg, ip administered 7 days post-surgery and measured after 0.5 hrs post-dose by Von Frey assay relative to control. It is filed as functional.

SMILES strings stand for the structures.

The source of these data is ChEMBL document CHEMBL4616709, “P2Y14 Receptor Antagonists Reverse Chronic Neuropathic Pain in a Mouse Model” (ACS Med Chem Lett, 2020).

As a reminder, the inhibition in vivo is the change of the read-out against control, counted positive when it falls. For orientation: IC50 means the concentration at which inhibition is half-maximal. By ED50 is commonly meant the dose at which the effect has come halfway, by size or by number of responders.

Chain of Cannabinoid receptor 1 (P20272 whole entry): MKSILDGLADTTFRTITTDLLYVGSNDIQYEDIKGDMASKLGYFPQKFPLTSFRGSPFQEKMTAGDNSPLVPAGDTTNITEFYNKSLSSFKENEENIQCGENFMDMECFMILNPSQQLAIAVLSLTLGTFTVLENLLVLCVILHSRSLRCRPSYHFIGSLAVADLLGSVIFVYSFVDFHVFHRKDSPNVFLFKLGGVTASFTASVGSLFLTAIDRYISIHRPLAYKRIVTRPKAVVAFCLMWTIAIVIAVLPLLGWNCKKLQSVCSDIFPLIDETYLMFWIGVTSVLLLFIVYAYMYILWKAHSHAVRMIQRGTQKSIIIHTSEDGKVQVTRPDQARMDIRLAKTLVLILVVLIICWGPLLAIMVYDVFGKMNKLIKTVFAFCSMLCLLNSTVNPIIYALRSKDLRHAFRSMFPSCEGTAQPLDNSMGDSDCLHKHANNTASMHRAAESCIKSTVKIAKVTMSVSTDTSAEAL
Chain of Cannabinoid receptor 2 (Q9QZN9 whole entry, looked up): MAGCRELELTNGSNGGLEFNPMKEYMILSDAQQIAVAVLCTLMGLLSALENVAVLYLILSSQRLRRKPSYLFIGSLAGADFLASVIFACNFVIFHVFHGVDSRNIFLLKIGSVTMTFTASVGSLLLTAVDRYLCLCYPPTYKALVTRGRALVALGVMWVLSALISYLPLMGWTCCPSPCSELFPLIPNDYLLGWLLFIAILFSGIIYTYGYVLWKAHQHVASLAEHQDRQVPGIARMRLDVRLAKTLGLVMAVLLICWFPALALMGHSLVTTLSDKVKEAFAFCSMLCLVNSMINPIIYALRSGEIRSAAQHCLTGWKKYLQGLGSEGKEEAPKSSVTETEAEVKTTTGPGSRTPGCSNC

In the case of `O=C(O)c1cc(O)c2ccc(-c3ccc(C(F)(F)F)cc3)cc2c1`, the inhibition in vivo at 10 µmol/kg is 0% in the series on Mus musculus [1]; 35.2% in the series with Mus musculus [2]; 59.8% in the series on Mus musculus [3]; 64.2% with Mus musculus [4]; 23.4% in the series with Mus musculus [5]. Besides, the Activity result with Mus musculus [6] was “Non-Toxic”. Besides, the Ratio in the series with Mus musculus [7] is reported as 0.34 - 0.63.

On to `O=C(O)c1cc(-c2ccc(C3CCNCC3)cc2)c2ccc(-c3ccc(C(F)(F)F)cc3)cc2c1` [PPTN], for which the IC50 at Cannabinoid receptor 1 and at Cannabinoid receptor 2 was more than 50 µM throughout. Further, in the series on Mus musculus [8], the ED50 was determined as 1.6 µmol/kg. In addition, the inhibition in vivo at 10 µmol/kg in the series on Mus musculus [1] is 21.3%; in the series on Mus musculus [2], 78.6%; with Mus musculus [3], 96.4%; in the series on Mus musculus [4], 100%; in the series with Mus musculus [5] it was 87.9%. The inhibition in vivo at 3 µmol/kg with Mus musculus [9] was 8.7%; with Mus musculus [11], 64.7%; in the series on Mus musculus [13] it was 76.9%; with Mus musculus [15], 79.3%; in the series on Mus musculus [17], 62.9%. Besides, the inhibition in vivo at 1 µmol/kg in the series with Mus musculus [10] came out at 4.7%; in the series with Mus musculus [12] it was 4.7%; in the series on Mus musculus [14], 10%; with Mus musculus [16] it was 19.9%; in the series on Mus musculus [18], 10%. Also, in the series on Mus musculus [6], the Activity result is reported as “Non-Toxic”.

As for `NCCCNC(=O)c1ccc(-c2cc(C(=O)O)cc(-n3cc(-c4ccc(C(F)(F)F)cc4)nn3)c2)s1`, the inhibition in vivo at 10 µmol/kg amounted to 10% in the series on Mus musculus [1]; 30.9% in the series with Mus musculus [2]; 74% in the series on Mus musculus [3]; 91.5% with Mus musculus [4]; 81% in the series on Mus musculus [5]. The Ratio in the series on Mus musculus [7] is on record as 0.34 - 0.63.

Take `C#CCCCCN1CCC(c2ccc(-c3cc(C(=O)O)cc4cc(-c5ccc(C(F)(F)F)cc5)ccc34)cc2)CC1`: the inhibition in vivo at 10 µmol/kg with Mus musculus [1] was determined as 0%; in the series with Mus musculus [2], 9.6%; in the series with Mus musculus [3], 42.7%; in the series with Mus musculus [4], 75.9%; in the series on Mus musculus [5], 52.4%. Moreover, the Ratio in the series on Mus musculus [7] came to 0.13.

Turning to `O=C(O)c1cc(-c2ccc(C3CCNCC3)cc2)cc(-n2cc(-c3ccc(C(F)(F)F)cc3)nn2)c1`, the ED50 in the series on Mus musculus [8] is 3.5 µmol/kg. Also, the inhibition in vivo at 10 µmol/kg in the series on Mus musculus [1] amounted to 12.7%; in the series on Mus musculus [2], 31.9%; in the series on Mus musculus [3], 57.2%; in the series on Mus musculus [4], 67.4%; with Mus musculus [5], 52.4%. In addition, the inhibition in vivo at 3 µmol/kg with Mus musculus [9] was found to be 0%; in the series on Mus musculus [11] it was 35.6%; in the series with Mus musculus [13], 44.6%; in the series with Mus musculus [15] it was 53.3%; in the series with Mus musculus [17], 44.6%. Moreover, the inhibition in vivo at 1 µmol/kg was found to be 8.7% with Mus musculus [10]; 8.7% in the series on Mus musculus [12]; 18.7% in the series with Mus musculus [14]; 18.7% with Mus musculus [16]; 8.7% in the series with Mus musculus [18].

Consider `O=C(O)c1cc(-c2ccc(C3CCNCC3)cc2)cc(-c2cn(-c3ccc(C(F)(F)F)cc3)nn2)c1`, for which the inhibition in vivo at 10 µmol/kg in the series with Mus musculus [1] was found to be 6.7%; in the series with Mus musculus [2] it was 55.1%; in the series with Mus musculus [3] it was 71.4%; in the series with Mus musculus [4] it was 86.8%; with Mus musculus [5], 70.7%. The Activity result in the series with Mus musculus [6] is “Non-Toxic”. In the series with Mus musculus [7], the Ratio is 0.34 - 0.63.

Consider `CCC(=O)N1CCC(c2ccc(-c3cc(C(=O)O)cc4cc(-c5ccc(C(F)(F)F)cc5)ccc34)cc2)CC1`, for which the inhibition in vivo at 10 µmol/kg was found to be 5.6% in the series on Mus musculus [1]; 55.7% in the series on Mus musculus [2]; 71.6% in the series with Mus musculus [3]; 77.2% in the series with Mus musculus [4]; 32.9% with Mus musculus [5]. The Ratio in the series with Mus musculus [7] is 0.72 - 0.92.

For the molecule `CC(=O)N1CCC(c2ccc(-c3cc(C(=O)O)cc4cc(-c5ccc(C(F)(F)F)cc5)ccc34)cc2)CC1`, the Activity entry in the series with Mus musculus [6] is “Non-Toxic”.
